Reference: ChEMBL document CHEMBL1201862, “PubChem BioAssay data set” (2004)
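Results reflect a 48-hour exposure of cells in 96-well plates to compound at five concentrations. The concentration for 50% growth inhibition is given as GI50.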 Active and inactive are the calls of the source. Cut-off read from the data, not from the text of the source: active = GI50 up to about 1.1 µM and inactive = higher.

Legend:
Assay in all cases: NCI-60 cell line screen, 48 h
Hs-578T = system: Hs-578T
HCC 2998 = system: HCC 2998
MDA-MB-231 = system: MDA-MB-231
TK-10 = system: TK-10
A549 = system: A549
SF-268 = system: SF-268
SNB-75 = system: SNB-75
COLO 205 = system: COLO 205
NCI/ADR-RES = system: NCI/ADR-RES
A498 = system: A498
UACC-62 = system: UACC-62
HCT-116 = system: HCT-116
OVCAR-4 = system: OVCAR-4
MOLT-4 = system: MOLT-4
RPMI-8226 = system: RPMI-8226
SNB-19 = system: SNB-19
SK-OV-3 = system: SK-OV-3
NCI-H460 = system: NCI-H460
SK-MEL-28 = system: SK-MEL-28
Malme-3M = system: Malme-3M

Measured: GI50

COc1cc(/C=C2\NC(=O)N(/C=C3\C(=O)Oc4ccccc4C3=O)C2=O)ccc1O
inactive: Hs-578T 33.6 µM | HCC 2998 41.2 µM | MDA-MB-231 35.2 µM | TK-10 > 100 µM | A549 > 100 µM | SF-268 57.1 µM | SNB-75 13.8 µM | COLO 205 78.2 µM | NCI/ADR-RES > 100 µM | A498 42.1 µM | UACC-62 49 µM | HCT-116 > 100 µM | OVCAR-4 91.8 µM | MOLT-4 36.2 µM | RPMI-8226 > 100 µM | SNB-19 37.5 µM | SK-OV-3 51.1 µM | NCI-H460 > 100 µM

CC1=NN(c2nc(N)nc(/C(C#N)=C/c3ccncc3)n2)C(C)(C)C1
inactive: Hs-578T > 100 µM | SK-MEL-28 > 100 µM | HCC 2998 > 100 µM | MDA-MB-231 > 100 µM | TK-10 > 100 µM | SF-268 > 100 µM | SNB-75 > 100 µM | COLO 205 > 100 µM | NCI/ADR-RES > 100 µM | A498 60.3 µM | UACC-62 > 100 µM | HCT-116 > 100 µM | OVCAR-4 > 100 µM | MOLT-4 > 100 µM | RPMI-8226 > 100 µM | SNB-19 > 100 µM | SK-OV-3 > 100 µM | NCI-H460 > 100 µM

NS(=O)(=O)c1ccc(/N=N/c2nc3nc(O)nc(O)c3[nH]2)cc1
inactive: Hs-578T > 100 µM | SK-MEL-28 > 100 µM | HCC 2998 > 100 µM | MDA-MB-231 > 100 µM | TK-10 > 100 µM | A549 > 100 µM | SF-268 > 100 µM | SNB-75 > 100 µM | COLO 205 > 100 µM | Malme-3M > 100 µM | NCI/ADR-RES > 100 µM | A498 > 100 µM | UACC-62 > 100 µM | HCT-116 > 100 µM | OVCAR-4 > 100 µM | RPMI-8226 > 100 µM | SNB-19 > 100 µM | SK-OV-3 > 100 µM | NCI-H460 > 100 µM

OC1CCC(COC(c2ccccc2)(c2ccccc2)c2ccccc2)O1 (centres undefined)
inactive: Hs-578T 16.6 µM | SK-MEL-28 18 µM | HCC 2998 16.4 µM | MDA-MB-231 16.6 µM | TK-10 > 10 µM | A549 17.7 µM | SF-268 16.9 µM | SNB-75 13.4 µM | COLO 205 17.1 µM | Malme-3M 17.9 µM | NCI/ADR-RES 17.7 µM | A498 20.2 µM | UACC-62 17.2 µM | HCT-116 16.7 µM | MOLT-4 11.1 µM | RPMI-8226 19.5 µM | SNB-19 21.1 µM | SK-OV-3 20.2 µM | NCI-H460 21 µM

Fc1cccc(F)c1C1SCC2=Nc3ccccc3CN21 (centres undefined)
inactive: Hs-578T 25.4 µM | SK-MEL-28 > 100 µM | HCC 2998 > 100 µM | MDA-MB-231 > 100 µM | TK-10 > 100 µM | A549 63 µM | SF-268 > 10 µM | SNB-75 18.7 µM | COLO 205 > 100 µM | NCI/ADR-RES 22.4 µM | A498 > 100 µM | UACC-62 41 µM | HCT-116 26.5 µM | OVCAR-4 > 100 µM | MOLT-4 74 µM | RPMI-8226 56.1 µM | SNB-19 44.1 µM | SK-OV-3 36.8 µM | NCI-H460 71 µM

CC1=NN(c2nc(N)nc(CCl)n2)C(C)(C)C1
inactive: Hs-578T 21 µM | SK-MEL-28 34.1 µM | HCC 2998 27.1 µM | MDA-MB-231 29.3 µM | TK-10 > 71.6 µM | A549 42.6 µM | SF-268 20.6 µM | SNB-75 24.3 µM | COLO 205 22.9 µM | NCI/ADR-RES 14.4 µM | A498 30.6 µM | UACC-62 14.8 µM | HCT-116 25.9 µM | OVCAR-4 8.63 µM | MOLT-4 19.5 µM | RPMI-8226 25.6 µM | SNB-19 > 61.9 µM | SK-OV-3 > 56 µM | NCI-H460 17.2 µM

C[C@@H](NC(=O)Nc1cccc(C(=O)Nc2cc(C(C)(C)C)ccc2C(=O)O)n1)c1ccccc1
inactive: Hs-578T 40.4 µM | SK-MEL-28 41.4 µM | HCC 2998 50.8 µM | MDA-MB-231 23.4 µM | A549 44.3 µM | SF-268 46.8 µM | SNB-75 32.1 µM | COLO 205 27.3 µM | Malme-3M 46.5 µM | NCI/ADR-RES > 100 µM | A498 64.1 µM | UACC-62 19.7 µM | HCT-116 19.9 µM | OVCAR-4 50.1 µM | MOLT-4 38 µM | RPMI-8226 41.8 µM | SNB-19 47 µM | SK-OV-3 43.8 µM | NCI-H460 52.1 µM

CCOC(=O)/C(=C\NC(=S)Nc1ccc(Cl)c(Cl)c1)C(=O)c1ccccc1
inactive: Hs-578T 2.11 µM | SK-MEL-28 53.2 µM | HCC 2998 17.3 µM | MDA-MB-231 25.9 µM | A549 43.1 µM | SF-268 26.6 µM | SNB-75 6.79 µM | COLO 205 46 µM | Malme-3M 63.5 µM | NCI/ADR-RES 33 µM | A498 3.94 µM | UACC-62 32.3 µM | HCT-116 46.5 µM | OVCAR-4 41.5 µM | MOLT-4 19 µM | RPMI-8226 5.12 µM | SK-OV-3 36.2 µM | NCI-H460 42.1 µM
